Results from patent US20220142925A1, “NON-STEROIDAL ANTI-INFLAMMATORY LYOPHILIZED PHARMACEUTICAL COMPOSITION” (EUROFARMA LABORATÓRIOS S.A., priority 2019, published 2022).
Read-outs that look alike come from different tables or passages of the source.

What was measured:
[1] = cited from earlier work; for solubility (in words): aqueous; for solubility: 20° C.
[2] = cited from earlier work
[3] = target: cyclooxygenase 1 (COX-1) (Homo sapiens, UniProt P23219); conditions: therapeutic plasma concentrations in humans; cited from earlier work
[4] = Forced degradation study (formation of valdecoxib); assay type: physicochemical; conditions: oxidative, basic, acidic conditions

Chain of cyclooxygenase 1 (COX-1) (P23219 24-599): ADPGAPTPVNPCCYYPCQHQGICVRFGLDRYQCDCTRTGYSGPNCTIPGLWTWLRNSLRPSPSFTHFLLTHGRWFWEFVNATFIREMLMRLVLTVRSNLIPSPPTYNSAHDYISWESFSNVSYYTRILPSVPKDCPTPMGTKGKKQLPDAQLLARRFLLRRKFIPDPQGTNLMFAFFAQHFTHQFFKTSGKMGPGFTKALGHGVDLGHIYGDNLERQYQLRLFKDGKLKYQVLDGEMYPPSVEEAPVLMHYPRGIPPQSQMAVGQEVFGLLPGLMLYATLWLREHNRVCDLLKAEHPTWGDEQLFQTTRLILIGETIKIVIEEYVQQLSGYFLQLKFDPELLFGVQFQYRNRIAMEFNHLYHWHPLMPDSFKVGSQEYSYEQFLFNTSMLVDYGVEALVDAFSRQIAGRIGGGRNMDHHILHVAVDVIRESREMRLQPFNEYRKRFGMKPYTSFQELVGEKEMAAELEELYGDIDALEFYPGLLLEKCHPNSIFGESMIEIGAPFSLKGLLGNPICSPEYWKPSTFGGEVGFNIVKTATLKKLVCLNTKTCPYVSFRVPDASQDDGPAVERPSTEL

## CCC(=O)NS(=O)(=O)c1ccc(-c2c(-c3ccccc3)noc2C)cc1 [acidic form of parecoxib]
[1]
  solubility (in words): low solubility

## CCC(=O)NS(=O)(=O)c1ccc(-c2c(-c3ccccc3)noc2C)cc1 [Parecoxib, parecoxib]
[1]; methylene chloride
  solubility in methylene hydrochloride: insoluble
[1]; tetrahydrofuran
  solubility in tetrahydrofuran: slightly soluble
[1]; water
  solubility in water: very soluble
[2]; 1% in water at 25° C.
  pH of 1% parecoxib in water: about 7.80
[2]
  dissociation constant, pKa: 6.07

## Cc1onc(-c2ccccc2)c1-c1ccc(S(N)(=O)=O)cc1 [valdecoxib]
[1]
  solubility (in words): low
[3]
  inhibition of cyclooxygenase 1 (COX-1): does not inhibit

## CCC(=O)NS(=O)(=O)c1ccc(-c2c(-c3ccccc3)noc2C)cc1.[Na+] [parecoxib sodium, N-[[4-(5-methyl-3-phenyl-4-isoxazolyl)phenyl]sulfonyl]propanamide sodium salt]
[1]; pH 7.8
  solubility: 18 mg/mL
[1]; pH 8.3
  solubility: 220 mg/mL
[1]
  solubility (in words): highly soluble
[4]
  sensitivity in forced degradation in relation to the formation of valdecoxib: sensitive to oxidative, basic, and acidic conditions
